These results are taken from patent US9828592B2, “Chemically modified sophorolipids and uses thereof” (Sophoro Biotechnologies, LLC, priority 2011, dated 2017).

The test system of experiment [1] is Trichoderma reesei (Rut-C30). In words: Cellulase induction studies in Trichoderma reesei culture, CMC endo-glucanase activity assay. It counts as cell-based. Particulars: for CMC (U/mL) at day 5: Example 4, inducer at 2% as carbon source, no glucose. As to the method:
Trichoderma reesei (Rut-C30) was selected as the host for cellulase expression in this Example. To prepare for the cellulase induction studies, a citrate minimal media was first prepared. The media composition described by England et al. in U.S. 2010/0009408 was modified to include 14.4 g/L citric acid, 4 g/L KH2PO4, 6.35 g/L (NH4)2SO4, 2 g/L MgSO4-7H2O, 0.53 g/L CaCl2-2H2O, and trace metal elements at 1 mL/L, which included 5 g/L FeSO4-7H2O, 1.6 g/L MnSO4—H2O, and 1.4 g/L ZnSO4-7H2O. The final pH was adjusted to 5.50 using NaOH.
The Trichoderma reesei (ATCC56765) was used in this Example. This fungal strain was developed as a catabolic de-repressed strain from classic mutagenesis of parent strain NG14 and the wild type QM6A. See Seidl et al., BMC Genomics, 9:327 (2008). To propagate Trichoderma, the freeze-dried stock from ATCC was first dissolved in sterile deionized water, and then transferred onto a potato dextrose agar (PDA) plate (Teknova P0047) using a sterile loop. The PDA plate was maintained at room temperature under white fluorescent light. After approximately seven days, green Trichoderma spores were observed. In addition, 60% (w/v) glucose, 15% (w/v) lactose, and 15% (w/v) cellobiose stocks were prepared and used both as controls and as the carbon source for Trichoderma growth.
To initiate cellulase induction studies for each of the sophorolipid mixtures prepared in Examples 1-3 above, 0.5 mL of glucose stock was first placed into 14 mL of citrate minimal media inside a 125 mL baffled flask. […]
To commence the fermentation, an approximately 1 cm×1 cm square agar plug was removed from the Trichoderma spore-containing PDA agar plate using a sterile loop and placed into the cellulase induction culture media. […] At five days of fermentation, the samples were collected and analyzed for carboxymethylcellulose (CMC) endo-glucanase activity. […] It should be understood that one CMC unit denotes the activity that liberates 1 μmol of reducing sugars (expressed as glucose equivalents) in one minute under the specified conditions of 50° C. and pH 4.8.

The test system of experiment [2] is Trichoderma reesei (Rut-C30). Described as above. It is filed as cell-based. Particulars: for Cellulase activity U/mL at day 3 / Cellulase activity U/mg at day 3: 2% glucose.
For another experiment, the system named is Trichoderma viride. Particulars: Mandels et al. 1962; cited from earlier work.
Setting [3] is: Example 8, 1.0 g/L (15 mg/15 mL, 2.92 mM).
Setting [4] is: Example 9, 1.0 g/L (15 mg/15 mL, 2.92 mM).
Setting [5] is: Example 8, 0.13 g/L (2.0 mg/15 mL, 0.38 mM).
Setting [6] is: Example 8, 1.3 g/L (20 mg/15 mL, 3.90 mM).
The mark [7] stands for this setting: Example 9, 0.13 g/L (2.0 mg/15 mL, 0.38 mM).
Setting [8] is: Example 9, 1.3 g/L (20 mg/15 mL, 3.90 mM).

Turning to `O=C[C@H](O)[C@@H](O)[C@H](O[C@@H]1O[C@H](CO)[C@@H](O)[C@H](O)[C@H]1O)[C@H](O)CO` [cellobiose], the “cellulase activity compared to the glucose control” value in experiment [1] (Example 4, day 5, in words) is reported as “marginal cellulase activity”. Also, the “CMC (U/mL) at day 5” value in experiment [1] is 2.05 U/mL. Also, the “Cellulase activity U/mL at day 3” value in experiment [2] (setting [3]) and in experiment [2] (setting [4]) was 0.34 U/mL throughout. The “Cellulase activity U/mg at day 3” value in experiment [2] (setting [3]) and in experiment [2] (setting [4]) was 0.34 U/mg in each case.

In the case of `OC[C@H]1O[C@@H](O[C@H]2[C@H](O)[C@@H](O)C(O)O[C@@H]2CO)[C@H](O)[C@@H](O)[C@H]1O` (stereo partly drawn) [lactose], the “CMC (U/mL) at day 5” value was found to be 10.1 U/mL in experiment [1] and 8.29 U/mL in experiment [2] (Example 5, inducer at 2%, no glucose). Further, the “Cellulase activity U/mL at day 3” value in experiment [2] (setting [3]) and in experiment [2] (setting [4]) was 0.64 U/mL in each case. Also, the “Cellulase activity U/mg at day 3” value in experiment [2] (setting [3]) and in experiment [2] (setting [4]) was 0.64 U/mg each time.

Consider `OC[C@H]1O[C@@H](O[C@@H]2[C@@H](O)[C@H](O)[C@@H](CO)O[C@@H]2O)[C@H](O)[C@@H](O)[C@@H]1O` [sophorose, 2-O-beta-D-glucopyranosyl-alpha-D-glucose], for which the “Cellulase activity U/mL at day 3” value in experiment [2] (setting [5]) was 3.58 U/mL; in experiment [2] (setting [6]), 15.0 U/mL; in experiment [2] (setting [7]) it was 3.58 U/mL; in experiment [2] (setting [8]), 15.0 U/mL. Besides, the “Cellulase activity U/mg at day 3” value in experiment [2] (setting [5]) is given as 26.9 U/mg; in experiment [2] (setting [6]), 11.2 U/mg; in experiment [2] (setting [7]), 26.9 U/mg; in experiment [2] (setting [8]), 11.2 U/mg. Moreover, the “increase in cellulase production compared to cellobiose” value with Trichoderma viride is recorded as “about 2500 times”.
